Data from PubChem BioAssay (NCI).
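Where inhibition never reached the appropriate level, the endpoint shown equals the highest concentration tested. Otherwise, values were interpolated linearly from a five-concentration, 48-hour dose response in 96-well plates. The concentration for full growth arrest is given as TGI.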

Columns and labels:
Experiment in all cases: inhibition of tumour cell growth, NCI panel, 48 h
LOX IMVI melanoma = system: LOX IMVI melanoma
SW-620 colon = system: SW-620 colon
RPMI-8226 leukemia = system: RPMI-8226 leukemia
MDA-N = system: MDA-N
A549 NSCLC = system: A549 NSCLC
UO-31 renal = system: UO-31 renal
MOLT-4 leukemia = system: MOLT-4 leukemia
KM12 colon = system: KM12 colon
HL-60(TB) leukemia = system: HL-60(TB) leukemia
SN12C renal = system: SN12C renal
SF-539 CNS = system: SF-539 CNS
SNB-19 CNS = system: SNB-19 CNS
HS 578T breast = system: HS 578T breast
SK-OV-3 ovarian = system: SK-OV-3 ovarian
PC-3 prostate = system: PC-3 prostate
CAKI-1 renal = system: CAKI-1 renal
T-47D breast = system: T-47D breast
OVCAR-5 ovarian = system: OVCAR-5 ovarian
OVCAR-8 ovarian = system: OVCAR-8 ovarian
HOP-62 NSCLC = system: HOP-62 NSCLC
SK-MEL-5 melanoma = system: SK-MEL-5 melanoma
HCT-116 colon = system: HCT-116 colon
EKVX NSCLC = system: EKVX NSCLC
MCF7 breast = system: MCF7 breast
IGROV1 ovarian = system: IGROV1 ovarian
UACC-257 melanoma = system: UACC-257 melanoma
K-562 leukemia = system: K-562 leukemia
ACHN renal = system: ACHN renal
SF-295 CNS = system: SF-295 CNS
CCRF-CEM leukemia = system: CCRF-CEM leukemia
HT29 colon = system: HT29 colon
NCI-H460 lung = system: NCI-H460 lung
TK-10 renal = system: TK-10 renal
HCC-2998 colon = system: HCC-2998 colon
BT-549 breast = system: BT-549 breast
SR leukemia = system: SR leukemia
SF-268 CNS = system: SF-268 CNS
OVCAR-3 ovarian = system: OVCAR-3 ovarian
MDA-MB-435 = system: MDA-MB-435
SK-MEL-2 melanoma = system: SK-MEL-2 melanoma
NCI/ADR-RES ovarian = system: NCI/ADR-RES ovarian
U251 CNS = system: U251 CNS
COLO 205 colon = system: COLO 205 colon
MDA-MB-231 breast = system: MDA-MB-231 breast
SNB-75 CNS = system: SNB-75 CNS
UACC-62 melanoma = system: UACC-62 melanoma
M14 melanoma = system: M14 melanoma
SK-MEL-28 melanoma = system: SK-MEL-28 melanoma
HOP-92 NSCLC = system: HOP-92 NSCLC
786-0 renal = system: 786-0 renal
A498 renal = system: A498 renal
DU-145 prostate = system: DU-145 prostate
HCT-15 colon = system: HCT-15 colon
OVCAR-4 ovarian = system: OVCAR-4 ovarian
NCI-H522 lung = system: NCI-H522 lung
NCI-H226 lung = system: NCI-H226 lung

Compound: Cc1ccc2nc(Cl)c(/C=N/N3C(=O)/C(=C/c4cccc([N+](=O)[O-])c4)N=C3c3ccccc3)cc2c1
- TGI (LOX IMVI melanoma): > 100 µM
- TGI (SW-620 colon): > 100 µM
- TGI (RPMI-8226 leukemia): > 100 µM
- TGI (MDA-N): 42.2 µM
- TGI (A549 NSCLC): > 100 µM
- TGI (UO-31 renal): > 100 µM
- TGI (MOLT-4 leukemia): 80.5 µM
- TGI (KM12 colon): > 100 µM
- TGI (HL-60(TB) leukemia): > 100 µM
- TGI (SN12C renal): > 100 µM
- TGI (SF-539 CNS): > 100 µM
- TGI (SNB-19 CNS): > 100 µM
- TGI (HS 578T breast): > 100 µM
- TGI (SK-OV-3 ovarian): > 100 µM
- TGI (PC-3 prostate): 76.9 µM
- TGI (CAKI-1 renal): > 100 µM
- TGI (T-47D breast): > 100 µM
- TGI (OVCAR-5 ovarian): > 100 µM
- TGI (OVCAR-8 ovarian): > 100 µM
- TGI (HOP-62 NSCLC): > 100 µM
- TGI (SK-MEL-5 melanoma): > 100 µM
- TGI (HCT-116 colon): > 100 µM
- TGI (EKVX NSCLC): > 100 µM
- TGI (MCF7 breast): 93.7 µM
- TGI (IGROV1 ovarian): > 100 µM
- TGI (UACC-257 melanoma): > 100 µM
- TGI (K-562 leukemia): > 100 µM
- TGI (ACHN renal): > 100 µM
- TGI (SF-295 CNS): > 100 µM
- TGI (CCRF-CEM leukemia): 97 µM
- TGI (HT29 colon): > 100 µM
- TGI (NCI-H460 lung): > 100 µM
- TGI (TK-10 renal): > 100 µM
- TGI (HCC-2998 colon): > 100 µM
- TGI (BT-549 breast): > 100 µM
- TGI (SR leukemia): 59.6 µM
- TGI (SF-268 CNS): > 100 µM
- TGI (OVCAR-3 ovarian): > 100 µM
- TGI (MDA-MB-435): 54.5 µM
- TGI (SK-MEL-2 melanoma): 61.7 µM
- TGI (NCI/ADR-RES ovarian): > 100 µM
- TGI (U251 CNS): > 100 µM
- TGI (COLO 205 colon): > 100 µM
- TGI (MDA-MB-231 breast): > 100 µM
- TGI (SNB-75 CNS): > 100 µM
- TGI (UACC-62 melanoma): > 100 µM
- TGI (M14 melanoma): > 100 µM
- TGI (SK-MEL-28 melanoma): > 100 µM
- TGI (HOP-92 NSCLC): > 100 µM
- TGI (786-0 renal): > 100 µM
- TGI (A498 renal): 52.3 µM
- TGI (DU-145 prostate): > 100 µM
- TGI (HCT-15 colon): > 100 µM
- TGI (OVCAR-4 ovarian): > 100 µM

Compound: CC12O[C@]3([C@H](C(=O)N4CCOC43C)[C@H]1Cl)[C@H]1O[C@H]12 (some centres undefined)
- TGI (LOX IMVI melanoma): > 100 µM
- TGI (SW-620 colon): > 100 µM
- TGI (RPMI-8226 leukemia): > 100 µM
- TGI (MDA-N): > 100 µM
- TGI (A549 NSCLC): > 100 µM
- TGI (UO-31 renal): > 100 µM
- TGI (MOLT-4 leukemia): > 100 µM
- TGI (KM12 colon): > 100 µM
- TGI (NCI-H522 lung): > 100 µM
- TGI (HL-60(TB) leukemia): > 100 µM
- TGI (SN12C renal): > 100 µM
- TGI (SF-539 CNS): > 100 µM
- TGI (SNB-19 CNS): > 100 µM
- TGI (HS 578T breast): > 100 µM
- TGI (SK-OV-3 ovarian): > 100 µM
- TGI (PC-3 prostate): > 100 µM
- TGI (CAKI-1 renal): > 100 µM
- TGI (T-47D breast): > 100 µM
- TGI (OVCAR-5 ovarian): > 100 µM
- TGI (OVCAR-8 ovarian): > 100 µM
- TGI (HOP-62 NSCLC): > 100 µM
- TGI (SK-MEL-5 melanoma): > 100 µM
- TGI (HCT-116 colon): > 100 µM
- TGI (EKVX NSCLC): > 100 µM
- TGI (MCF7 breast): > 100 µM
- TGI (IGROV1 ovarian): > 100 µM
- TGI (UACC-257 melanoma): > 100 µM
- TGI (K-562 leukemia): > 100 µM
- TGI (ACHN renal): > 100 µM
- TGI (SF-295 CNS): > 100 µM
- TGI (HT29 colon): > 100 µM
- TGI (NCI-H460 lung): > 100 µM
- TGI (TK-10 renal): > 100 µM
- TGI (HCC-2998 colon): > 100 µM
- TGI (BT-549 breast): > 100 µM
- TGI (SR leukemia): > 100 µM
- TGI (SF-268 CNS): > 100 µM
- TGI (OVCAR-3 ovarian): > 100 µM
- TGI (MDA-MB-435): > 100 µM
- TGI (SK-MEL-2 melanoma): > 100 µM
- TGI (NCI/ADR-RES ovarian): > 100 µM
- TGI (U251 CNS): > 100 µM
- TGI (COLO 205 colon): 91.9 µM
- TGI (MDA-MB-231 breast): > 100 µM
- TGI (SNB-75 CNS): > 100 µM
- TGI (NCI-H226 lung): > 100 µM
- TGI (UACC-62 melanoma): > 100 µM
- TGI (M14 melanoma): > 100 µM
- TGI (SK-MEL-28 melanoma): > 100 µM
- TGI (HOP-92 NSCLC): > 100 µM
- TGI (786-0 renal): > 100 µM
- TGI (A498 renal): > 100 µM
- TGI (DU-145 prostate): > 100 µM
- TGI (HCT-15 colon): > 100 µM
- TGI (OVCAR-4 ovarian): > 100 µM
